Results as given in ChEMBL document CHEMBL1177690, “Target-specific control of lymphoid-specific protein tyrosine phosphatase (Lyp) activity” (Bioorg Med Chem, 2010).

Experiments:
[1] = Activity at Lyp CCPGCC mutant expressed in Escherichia coli using pNPP as a substrate […]
[2] = molecular target: T1, Tyrosine-protein phosphatase non-receptor type 22 (Homo sapiens) (UniProt Q9Y2R2); assay: Inhibition of Lyp expressed in Escherichia coli […]
T1 sequence (whole entry): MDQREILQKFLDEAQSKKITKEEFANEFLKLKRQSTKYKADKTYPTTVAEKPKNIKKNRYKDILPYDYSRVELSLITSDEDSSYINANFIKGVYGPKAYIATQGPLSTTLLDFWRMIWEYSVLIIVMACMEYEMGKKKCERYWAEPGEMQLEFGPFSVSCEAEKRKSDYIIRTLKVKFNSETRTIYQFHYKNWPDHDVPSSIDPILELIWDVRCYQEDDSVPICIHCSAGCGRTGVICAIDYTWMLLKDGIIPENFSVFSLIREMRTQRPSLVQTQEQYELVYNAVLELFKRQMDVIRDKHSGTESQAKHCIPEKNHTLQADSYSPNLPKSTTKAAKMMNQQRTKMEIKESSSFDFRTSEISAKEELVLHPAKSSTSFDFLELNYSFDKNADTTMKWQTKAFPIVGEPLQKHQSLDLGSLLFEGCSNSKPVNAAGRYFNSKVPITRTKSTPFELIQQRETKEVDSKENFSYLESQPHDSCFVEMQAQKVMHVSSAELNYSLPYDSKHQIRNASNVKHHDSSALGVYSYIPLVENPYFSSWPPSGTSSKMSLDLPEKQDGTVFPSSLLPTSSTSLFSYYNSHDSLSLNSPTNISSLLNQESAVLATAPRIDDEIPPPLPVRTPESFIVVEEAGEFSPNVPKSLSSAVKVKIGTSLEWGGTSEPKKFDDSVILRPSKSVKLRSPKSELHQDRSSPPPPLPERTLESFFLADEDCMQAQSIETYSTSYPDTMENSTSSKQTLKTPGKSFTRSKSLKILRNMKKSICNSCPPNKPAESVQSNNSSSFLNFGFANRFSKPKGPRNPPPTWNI

In the case of `O=C(O)c1ccccc1-c1c2ccc(=O)c([As]3SCCS3)c-2oc2c([As]3SCCS3)c(O)ccc12`, the kcat [1] is reported as 0.057 s⁻¹ and the Activity [2] is reported as “Dose-dependent effect”.
